Assay results from US5952321A, “Substituted azetidinones as anti-inflammatory and antidegenerative agents” (Merck & Co., Inc., priority 1996, dated 1999).
Where two headings read alike, the source gives them in different places.

Target: T1, Human Polymorphonuclear Leukocyte Elastase (Homo sapiens, UniProt P08246)
T1 sequence (P08246 30-267): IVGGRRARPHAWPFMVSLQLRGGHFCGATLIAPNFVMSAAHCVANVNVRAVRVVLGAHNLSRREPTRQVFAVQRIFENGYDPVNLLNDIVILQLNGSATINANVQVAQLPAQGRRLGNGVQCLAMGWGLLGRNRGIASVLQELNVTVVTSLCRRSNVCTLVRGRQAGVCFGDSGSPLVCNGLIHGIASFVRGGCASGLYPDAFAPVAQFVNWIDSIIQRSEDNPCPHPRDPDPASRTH
Test: Inhibition of human polymorphonuclear leukocyte elastase via hydrolysis of Boc-AAPAN or Boc-AAPVN
Type: biochemical
Details: second order rate constant for inactivation of the enzyme, read-out: Kobs /[I]
Procedure: Enzyme Assays for the Inhibition of Human Polymorphonuclear Leukocyte Elastase Via Hydrolysis of N-t-Boc-alanyl-alanyl-prolylalanine-p-nitroanilide (Boc-AAPAN) or […] (Boc-AAPVN) Reagent:
0.05M TES (N-tris[hydroxymethyl]methyl-2-amino-ethanesulfonic acid) Buffer, pH 7.5.
0.2 mM Boc-AAPAN or Boc-AAPVN.
To prepare substrate, the solid was first dissolved in 10.0 ml DMSO. Buffer at pH 7.5 was then added to a final volume of 100 ml.
Crude extract of human polymorphonuclear leukocytes (PMN) containing elastase activity.
Inhibitors (azetidinones) to be tested dissolved in DMSO just before use.
To 1.0 ml of 0.2 mM Boc-AAPAN in a cuvette, 0.01-0.1 ml of DMSO with or without inhibitor was added. After mixing, a measurement was taken at 410 mμ to detect any spontaneous hydrolysis due to presence of test compound. 0.05 Milliliters of PMN extract was then added and the ΔOD/min at 410 mμ was measured and recorded. Beckman model 35 spectrophotometer was used.
Results in Tables I to III were reported as ID50, effective dosage in micrograms per milliliter (μg/ml) for 50% inhibition of the enzyme activity 2 minutes after zero time.
Results were also expressed as Ki, the micromolar concentration of the inhibitor (μM) giving 50% of the control enzyme activity; or as ^k obs/I which is the second order rate constant in per mole per second for inactivation of the enzyme.
The elastase activity in the crude PMN extract may vary from one preparation to another. A control of each new batch is run, and the volume added in the assay procedure is adjusted according to activity.

kinact/KI (pH 7.5, Table I) [M⁻¹ s⁻¹] | kinact/KI (pH 7.5, Table III) [M⁻¹ s⁻¹] | SMILES
630000 | – | CCC[C@@H](NC(=O)N1C(=O)C(CC)(CC)[C@@H]1Oc1ccc(CN(C)CCOC(=O)C(C)C)cc1)c1ccc(C)cc1 [R4=Me; R5=CH2 CH2 OCOCHMe2; R6=H]
1e+06 | – | CCC[C@@H](NC(=O)N1C(=O)C(CC)(CC)[C@@H]1Oc1ccc(C(COC)N(C)CC)cc1)c1ccc(C)cc1 (mixture of isomers) [R4=Me; R5=Et; R6=CH2 OMe, 3,3-Diethyl-1-[(R)-α-(n-propyl)-4-(methyl)benzylaminocarbonyl]-4-(S)-[4-{1-(RS)-(N-ethyl-N-(methyl)amino)2-methoxyethyl}-phenoxy]azetidin-2-one]
1.5e+06 | – | CCC[C@@H](NC(=O)N1C(=O)C(CC)(CC)[C@@H]1Oc1ccc(C(COC)N(C)CCC)cc1)c1ccc(C)cc1 (mixture of isomers) [R4=Me; R5=n-Pr; R6=CH2 OMe, 3,3-Diethyl-1-[(R)-α-(n-propyl)-4-(methyl)benzylaminocarbonyl]-4-(S)-[4-{1-(RS)-(N-(n-propyl)-N-(methyl)amino)-2-methoxyethyl}phenoxy]azetidin-2-one]
850000 | – | CCC[C@@H](NC(=O)N1C(=O)C(CC)(CC)[C@@H]1Oc1ccc(CN(C)C(C)C)cc1)c1ccc(C)cc1 [R4=Me; R5=i-Pr; R6=H]
1.22e+06 | – | CCC[C@@H](NC(=O)N1C(=O)C(CC)(CC)[C@@H]1Oc1ccc(CN(C)C(C)COC)cc1)c1ccc(C)cc1 (stereo partly shown) [R4=Me; R5=CH(Me)CH2 OMe; R6=H]
1.05e+06 | – | CCC[C@@H](NC(=O)N1C(=O)C(CC)(CC)[C@@H]1Oc1ccc(CN(C)CCSCC)cc1)c1ccc(C)cc1 [R4=Me; R5=CH2 CH2 SEt; R6=H, (4S)-3,3-diethyl-1-[(R)-α-n-propyl-(4-methyl)benzylaminocarbonyl]-4-[(4-((2-thioethyl)ethyl)methylaminomethyl)phenoxy]azetidin-2-one]
1.1e+06 | – | CCC[C@@H](NC(=O)N1C(=O)C(CC)(CC)[C@@H]1Oc1ccc(CNC(=O)NC)cc1)c1ccc(C)cc1 [R4=H; R5=CONHMe; R6=H, (4S)-3,3-Diethyl-1-[(R)-α-(n-propyl)-4-(methyl)benzylaminocarbonyl]-4-[(4-((N-methyl)aminocarbonyl)aminomethyl)phenoxy]azetidin-2-one]
1.7e+06 | – | CCC[C@@H](NC(=O)N1C(=O)C(CC)(CC)[C@@H]1Oc1ccc(CN2CCN(C(=O)c3ccccc3)CC2)cc1)c1ccc(C)cc1 [R4+R5=--CH2 CH2 N(Bz)CH2 CH2 --; R6=H]
– | 400000 | CCC[C@@H](NC(=O)N1C(=O)C(CC)(CC)[C@@H]1Oc1ccc(CN(CC)C(C)COC)c(C)c1)c1ccc(C)cc1 (stereo partly shown)
600000 | – | CCC[C@@H](NC(=O)N1C(=O)C(CC)(CC)[C@@H]1Oc1ccc(C(C)N(CC)CCOC)cc1)c1ccc(C)cc1 (stereo partly shown) [R4=Et; R5=CH2 CH2 OMe; R6=Me]
1.1e+06 | – | CCC[C@@H](NC(=O)N1C(=O)C(CC)(CC)[C@@H]1Oc1ccc(C(COC)N(CC)CC)cc1)c1ccc(C)cc1 (mixture of isomers) [R4=Et; R5=Et; R6=CH2 OMe, 3,3-Diethyl-1-[(R)-α-(n-propyl)-4-(methyl)benzylaminocarbonyl]-4-(S)-[4-{1-(RS)-(N,N-diethylamino)-2-methoxyethyl}phenoxy]azetidin-2-one]
325000 | – | CCC[C@@H](NC(=O)N1C(=O)C(CC)(CC)[C@@H]1Oc1ccc(CN)cc1)c1ccc(C)cc1 [R4=H; R5=H; R6=H, (4S)-3,3-Diethyl-1-[(R)-α-(n-propyl)-4-(methyl)benzylaminocarbonyl]-4-[(4-aminomethyl)phenoxy]azetidin-2-one]
660000 | – | CCC[C@@H](NC(=O)N1C(=O)C(CC)(CC)[C@@H]1Oc1ccc(C(C)NCCO)cc1)c1ccc(C)cc1 (stereo partly shown) [R4=H; R5=CH2 CH2 OH; R6=Me]
1e+06 | – | CCC[C@@H](NC(=O)N1C(=O)C(CC)(CC)[C@@H]1Oc1ccc(C(C)N2CCC(OC)C2)cc1)c1ccc(C)cc1 (stereo partly shown) [R4+R5=--CH2 CH2 CH(OMe)CH2 --; R6=Me]
1.7e+06 | – | CCC[C@@H](NC(=O)N1C(=O)C(CC)(CC)[C@@H]1Oc1ccc(C(COC)N2CCCC2)cc1)c1ccc(C)cc1 (mixture of isomers) [R4+R5=--CH2 CH2 CH2 CH2 --; R6=CH2 OMe, 3,3-Diethyl-1-[(R)-α-(n-propyl)-4-(methyl)benzylaminocarbonyl]-4-(S)-[4-{1-(RS)-(1-pyrrolidino)-2-methoxyethyl}phenoxy]azetidin-2-one]
– | 1.3e+06 | CCC[C@@H](NC(=O)N1C(=O)C(CC)(CC)[C@@H]1Oc1ccc(CN(CC)C(C)COC)c(OC)c1)c1ccc(C)cc1 (stereo partly shown)
715000 | – | CCC[C@@H](NC(=O)N1C(=O)C(CC)(CC)[C@@H]1Oc1ccc(CN2CCN(c3ncccn3)CC2)cc1)c1ccc(C)cc1

kinact/KI (pH 7.5, Table I) [M⁻¹ s⁻¹] | kinact/KI (pH 7.5, Table III) [M⁻¹ s⁻¹] | SMILES
820000 | – | CCC[C@@H](NC(=O)N1C(=O)C(CC)(CC)[C@@H]1Oc1ccc(CN2CCOCC2)cc1)c1ccc(C)cc1 [R4+R5=--CH2 CH2 OCH2 CH2 --; R6=H]
1.1e+06 | – | CCC[C@@H](NC(=O)N1C(=O)C(CC)(CC)[C@@H]1Oc1ccc(C2CCCN2CCOCC)cc1)c1ccc(C)cc1 (stereo partly shown) [R4=CH2 CH2 OEt; R5+R6=--CH2 CH2 CH2 --]
1.25e+06 | – | CCC[C@@H](NC(=O)N1C(=O)C(CC)(CC)[C@@H]1Oc1ccc(CN(C)CCN(C)Cc2ccccc2)cc1)c1ccc(C)cc1 [R4=Me; R5=CH2 CH2 N(Me)Bn; R6=H]
230000 | – | CCC[C@@H](NC(=O)N1C(=O)C(CC)(CC)[C@@H]1Oc1ccc(CN(C)CCOC(=O)C(C)(C)C)cc1)c1ccc(C)cc1 [R4=Me; R5=CH2 CH2 OCOCMe3; R6=H]
800000 | – | CCC[C@@H](NC(=O)N1C(=O)C(CC)(CC)[C@@H]1Oc1ccc(CNC(=O)CN(C)C)cc1)c1ccc(C)cc1 [R4=H; R5=COCH2 NMe2; R6=H, (4S)-3,3-Diethyl-1-[(R)-α-(n-propyl)-4-(methyl)benzyl-aminocarbonyl]-4-[(4-((N,N-dimethyl)aminomethylcarbonyl)aminomethyl)phenoxy]azetidin-2-one]
460000 | – | CCC[C@@H](NC(=O)N1C(=O)C(CC)(CC)[C@@H]1Oc1ccc(C(C)N2CCOCC2)cc1)c1ccc(C)cc1 (stereo partly shown) [R4+R5=--CH2 CH2 OCH2 CH2 --; R6=Me]
– | 1.6e+06 | CCC[C@@H](NC(=O)N1C(=O)C(CC)(CC)[C@@H]1Oc1ccc(CNC2CC2)cc1)c1ccc2c(c1)OCO2
– | 1.12e+06 | CCC[C@@H](NC(=O)N1C(=O)C(CC)(CC)[C@@H]1Oc1ccc(CN(CC)CCOC)cc1)c1ccc(OCC)cc1
1.1e+06 | – | CCC[C@@H](NC(=O)N1C(=O)C(CC)(CC)[C@@H]1Oc1ccc(CN(C)CCN(C)C(=O)OC)cc1)c1ccc(C)cc1 [R4=Me; R5=CH2 CH2 N(Me)COOMe; R6=H]
1e+06 | – | CCC[C@@H](NC(=O)N1C(=O)C(CC)(CC)[C@@H]1Oc1ccc(C(COC)N(CCC)CCC)cc1)c1ccc(C)cc1 (stereo partly drawn) [R4=n-Pr; R5=n-Pr; R6=CH2 OMe, 3,3-Diethyl-1-[(R)-α-(n-propyl)-4-(methyl)benzylaminocarbonyl]-4-(S)-[4-{1-(RS)-(di-n-propyl)-2-methoxyethyl}phenoxy]azetidin-2-one]
– | 1.9e+06 | CCC[C@@H](NC(=O)N1C(=O)C(CC)(CC)[C@@H]1Oc1ccc(CN(CC)CCOC)cc1)c1ccc2c(c1)OCO2
940000 | – | CCC[C@@H](NC(=O)N1C(=O)C(CC)(CC)[C@@H]1Oc1ccc(CN2CCSC2)cc1)c1ccc(C)cc1 [R4+R5=--CH2 CH2 SCH2 --; R6=H]
670000 | – | CCC[C@@H](NC(=O)N1C(=O)C(CC)(CC)[C@@H]1Oc1ccc(CN2C(C)CCC2C)cc1)c1ccc(C)cc1 (stereo partly shown) [R4+R5=--CHMeCH2 CH2 CHMe--; R6=H]
1.4e+06 | – | CCC[C@@H](NC(=O)N1C(=O)C(CC)(CC)[C@@H]1Oc1ccc(CNC(=O)CN(C)Cc2ccccc2)cc1)c1ccc(C)cc1 [R4=H; R5=COCH2 N(Me)Bn; R6=H]
1.7e+06 | – | CCC[C@@H](NC(=O)N1C(=O)C(CC)(CC)[C@@H]1Oc1ccc(CNC(=O)Cc2ccncc2)cc1)c1ccc(C)cc1 [R4=H; R5=COCH2-4-pyridyl; R6=H, (4S)-3,3-Diethyl-1-[(R)-α-(n-propyl)-4-(methyl)benzylaminocarbonyl]-4-[(4-((4-pyridyl)methylcarbonyl)aminomethyl)phenoxy]azetidin-2-one]
– | 1.65e+06 | CCC[C@@H](NC(=O)N1C(=O)C(CC)(CC)[C@@H]1Oc1ccc(C(COC)N(C)CC)cc1)c1ccc2c(c1)OCO2 (mixture of isomers) [3,3-Diethyl-1-[(R)-α-(n-propyl)-(3,4-dioxomethylene)benzylaminocarbonyl]-4-(S)-[4-{1-(RS)-(N-ethyl-N-(methyl)amino)-2-methoxyethyl}phenoxy]azetidin-2-one]
560000 | – | CCC[C@@H](NC(=O)N1C(=O)C(CC)(CC)[C@@H]1Oc1ccc(CN(C)C)cc1)c1ccc(C)cc1 [R4=Me; R5=Me; R6=H]
